Results on two molecules are retold here after ChEMBL document CHEMBL1142493, “Structure-based approach to the development of potent and selective inhibitors of dihydrofolate reductase from cryptosporidium” (J Med Chem, 2008).

The experiment in a line: Inhibition of Cryptosporidium hominis dihydrofolate reductase expressed in Escherichia coli by spectrophotometry.

`COc1cc(C(C)C#Cc2c(C)nc(N)nc2N)ccc1-c1c(C(C)C)cccc1C(C)C` (racemic) yielded an IC50 of 16 nM.

Turning to `COc1cc(-c2c(C)cccc2C)cc(C(C)C#Cc2c(C)nc(N)nc2N)c1` (racemic), half-maximal inhibition (IC50) required 2.1 nM.
